Assay results reported in paper PMC12081876, “Identification of PTGR2 inhibitors as a new therapeutic strategy for diabetes and obesity” (EMBO Molecular Medicine, 2025).

What was measured:
[1] = tested on: PTGR2; assay: 15-keto-PGE2 content in fat tissue after BPRPT0245 dosing; type: in vivo, mouse; settings: BPRPT0245 100 mg/kg/day oral, 4 days, 2 h after last dose, vs vehicle
Protocol: Liquid nitrogen-frozen tissue was grinded using pestle and mortar. Approximately 500 mg of tissue powders were immersed with 400 μL of the upper layer of acetonitrile (ACN)/hexane mixture supplemented with 0.5% formic acid, and then homogenized with ceramic beads by MagNA Lyser (Roche, USA). The homogenate was then added with 600 μL ACN containing 13,14 dihydro-15-keto-PGE2-d4 (cat no. 10007978, Cayman Chemical, Ann Arbor, MI) in 1:20,000 dilution and homogenized, followed by the addition of 600 μL ddH2O. The mixture was centrifuged at 12,000 × g for 10 min at 0 °C. The lower layer was transferred to a new tube. A C-18 solid-phase extraction (SPE) cartridge (Cat no. 400020, Cayman Chemical) was sequentially activated with 20 mL methanol and 20 mL ddH2O. The protein sample was loaded into activated SPE cartridge. Once the sample passed the cartridge, the cartridge was washed with 5 mL 15% methanol and then 5 mL ddH2O. Finally, the sample was eluted with 10 mL HPLC-degree methanol (Methanol Chromasolv LC-MS, Fluka) and aliquoted into new 2-mL tubes. […]
The HPLC system consisted of an Agilent 1200 series LC System with BinPump (Waldbronn, Germany) and an Agilent Eclipse XDB C8 (3.0 × 150 mm, 5 µm) interfaced to a Sciex API 4000 tandem mass spectrometer. […] The ions monitored for BPRPT0245 were m/z 447/189 and m/z 357/195, respectively. […]

[2] = tested on: PPARγ lysine acetylation; assay: Cell-based PPARγ acetylation assay; parameters: species or system mouse; settings: cultured adipocytes
Protocol: One day after achieving 100% confluence, 3T3-L1 cells were induced differentiation with 0.5 mM IBMX, 1 µm dexamethasone and 10 μg/mL insulin in DMEM containing 10% FBS for 2 days and maintained differentiation in DMEM supplemented with 10 μg/mL insulin and 10% FBS for 6 days. The medium was changed every 2 days. […] Cells were harvested and lysed in RIPA buffer supplemented with 1X cOmplete™, EDTA-free Protease Inhibitor Cocktail (cat. no. 04693132001, Roche) and 1X PhosSTOP™ (cat. no. 4906845001, Roche). The protein concentrations of cell lysates were measured by Bradford reagent (cat. no. BP500-0006, Bio-Rad). The protein samples were performed immunoprecipitation with magnetic beads (Protein G Mag Sepharose™, Cytiva). Briefly, 200 μg of protein samples were incubated in 500 μl of PBS buffer containing 1 μg of anti-PPARγ antibody or 1 μg of anti-rabbit IgG antibody with gentle rotation at 4 °C overnight. On the next day, PBS-washed beads were incubated with overnight mixture of protein sample and antibody at 4 °C for 1 h with gentle rotation. Then the beads were washed three times with 1000 μl of PBS and harvested with centrifugation at 4 °C and 10,000 × g for 5 min. […] Acetylation level of PPARγ was analyzed using Image J software and normalized against PPARγ.

Row | SMILES | increase of 15-keto-PGE2 content in inguinal fat [1] | increase of 15-keto-PGE2 content in perigonadal fat ([1]; trend) | acetylation of the PPARγ LBD [2]
1 | Cc1[nH]c2nc(C(C)N3CCN(c4ccccc4)CC3)nn2c(=O)c1Cc1ccc(F)cc1 (stereo not drawn) [BPRPT0245] | ~ 1.32 fold | ~ 1.34 fold | 
2 | CCCCCC(=O)/C=C/[C@H]1[C@H](O)CC(=O)[C@@H]1C/C=C\CCCC(=O)O [15-keto-PGE2, 15-keto-prostaglandin E2] |  |  | no altered acetylation of the PPARγ LBD
